These results are taken from ChEMBL document CHEMBL5365417, “The development of diphenyleneiodonium analogs as GPR3 agonists” (Bioorg Med Chem Lett, 2023).

A value given as a limit tells only on which side of the number the result lay.

As usually defined, the EC50 is the midpoint of the concentration-response curve.

For experiment [1], the target named is T1, G-protein coupled receptor 3 (Homo sapiens, UniProt P46089). The experiment is described as follows: Agonist activity at human GPR3 expressed in HEK293 cells assessed as increase in cAMP accumulation incubated for 30 mins by HTRF assay. Type of experiment: functional, cell-based.
The target of experiment [2] is T1, G-protein coupled receptor 3. The experiment is described as follows: Agonist activity at human GPR3 expressed in HEK293 cells assessed as increase in cAMP accumulation at 1 uM incubated for 30 mins by AlphaScreen assay relative to control. Type of experiment: functional, cell-based. (cAMP levels reflect the balance of adenylyl cyclase and phosphodiesterase activity.)

T1 sequence (P46089 whole entry): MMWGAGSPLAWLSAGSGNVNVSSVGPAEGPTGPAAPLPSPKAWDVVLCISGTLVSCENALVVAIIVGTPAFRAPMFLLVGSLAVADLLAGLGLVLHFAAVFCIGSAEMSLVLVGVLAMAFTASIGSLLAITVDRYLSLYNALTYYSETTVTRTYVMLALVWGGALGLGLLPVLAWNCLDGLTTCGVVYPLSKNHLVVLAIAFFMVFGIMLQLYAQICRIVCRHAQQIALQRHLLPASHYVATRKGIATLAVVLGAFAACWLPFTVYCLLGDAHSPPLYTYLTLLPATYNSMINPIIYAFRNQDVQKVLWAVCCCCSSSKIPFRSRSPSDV

In the case of `CN(C)C1c2ccccc2-c2ccccc21`, the 50% effective concentration (EC50) in experiment [1] came to 21 µM.
Same read-out and setting: under `O=c1[nH]c2ccccc2c2ccccc12` stands 45 µM; under `Cn1c2ccccc2c2ccccc21`, 40 µM.
Still for that read-out and setting: under `c1ccc2c(c1)sc1ccccc12` [DIBENZOTHIOPHENE] stands 81 µM; under `c1ccc2c(c1)cnc1ccccc12` [PHENANTHRIDINE], 67 µM.
Still for that read-out and setting: for `Fc1ccc2c(c1)oc1ccccc12` the value was 105 µM; for `CC1c2ccccc2-c2ccccc2N1C` (stereo not given), 60 µM; for `FC1(F)Oc2cc3c(cc2O1)-c1ccccc1[I+]3`, 19.3 µM.
Take `O=S1(=O)c2ccccc2-c2ccccc21`: in experiment [1], the EC50 came to 5.1 µM.
As to `Cc1nc2ccccc2c2ccccc12`, in experiment [1], the EC50 was 86 µM.
On to `NC1c2ccccc2-c2ccccc21`, for which the EC50 in experiment [1] is greater than 100 µM.
Regarding `O=CNC1c2ccccc2-c2ccccc21`, in experiment [1], the EC50 was 158 µM.
On to `CC(C)(C)[S+]([O-])N=C1c2ccccc2-c2ccccc21` (stereo not given), for which the EC50 in experiment [1] was 66 µM.
The same measure, in the same setting: for `C[N+]1(C)c2ccccc2-c2ccccc21` the value was 114 µM.
`c1ccc2c(c1)[nH]c1ccccc12` [CARBAZOLE]: in experiment [1], the EC50 was 7.6 µM.
On to `CCCCCCCCCCCCC/C=C/[C@@H](O)[C@@H](N)COP(=O)(O)O`, for which the Activity in experiment [2] was found to be 20%.
In the case of `CN(C)C1(C)c2ccccc2-c2ccccc21`, in experiment [1], the EC50 is greater than 100 µM.
As to `O=[N+]([O-])c1ccc2c(c1)[I+]c1ccccc1-2`, in experiment [1], the EC50 was determined as 1.34 µM.
As for `C[n+]1cc2ccccc2c2ccccc21`, in experiment [1], the EC50 stood at 382 µM.
As for `CC1(N)c2ccccc2-c2ccccc21`, the 50% effective concentration (EC50) in experiment [1] is greater than 100 µM.
